{"source": "patent US11344564B1", "about": "“Method of treatment based on reduced monoamine oxidase a activity” (Lennham Pharmaceuticals, Inc., priority 2021, dated 2022)", "key": {"human MAO-B": {"target": "T1, human MAO-B (Homo sapiens, UniProt P27338)", "T1 sequence (P27338 1-520)": "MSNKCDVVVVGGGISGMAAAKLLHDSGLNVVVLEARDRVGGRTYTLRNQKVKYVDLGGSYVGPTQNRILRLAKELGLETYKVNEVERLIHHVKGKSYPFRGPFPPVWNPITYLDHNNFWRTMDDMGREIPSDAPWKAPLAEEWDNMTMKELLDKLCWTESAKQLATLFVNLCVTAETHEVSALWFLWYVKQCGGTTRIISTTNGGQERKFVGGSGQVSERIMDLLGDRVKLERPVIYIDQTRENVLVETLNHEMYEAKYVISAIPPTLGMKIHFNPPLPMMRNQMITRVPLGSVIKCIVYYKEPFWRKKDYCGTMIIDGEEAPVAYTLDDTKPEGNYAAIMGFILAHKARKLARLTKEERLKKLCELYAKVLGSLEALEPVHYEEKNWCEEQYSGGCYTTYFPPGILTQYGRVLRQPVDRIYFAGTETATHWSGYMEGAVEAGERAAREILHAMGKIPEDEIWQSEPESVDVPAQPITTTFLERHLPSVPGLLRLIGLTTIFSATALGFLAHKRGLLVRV", "assay": "in vitro metabolism of psilocin by human MAO-B", "type": "in vitro ADME", "conditions": "test compound 0.2 and 2 μM; protein 0.03, 0.1, 0.3 and 1 mg/ml; incubation 0-30 min, 37° C., pH 7.4, no cofactors (FIGS. 1C & 1D)"}, "human MAO-A": {"target": "T2, human MAO-A (Homo sapiens, UniProt P21397)", "T2 sequence (P21397 1-527)": "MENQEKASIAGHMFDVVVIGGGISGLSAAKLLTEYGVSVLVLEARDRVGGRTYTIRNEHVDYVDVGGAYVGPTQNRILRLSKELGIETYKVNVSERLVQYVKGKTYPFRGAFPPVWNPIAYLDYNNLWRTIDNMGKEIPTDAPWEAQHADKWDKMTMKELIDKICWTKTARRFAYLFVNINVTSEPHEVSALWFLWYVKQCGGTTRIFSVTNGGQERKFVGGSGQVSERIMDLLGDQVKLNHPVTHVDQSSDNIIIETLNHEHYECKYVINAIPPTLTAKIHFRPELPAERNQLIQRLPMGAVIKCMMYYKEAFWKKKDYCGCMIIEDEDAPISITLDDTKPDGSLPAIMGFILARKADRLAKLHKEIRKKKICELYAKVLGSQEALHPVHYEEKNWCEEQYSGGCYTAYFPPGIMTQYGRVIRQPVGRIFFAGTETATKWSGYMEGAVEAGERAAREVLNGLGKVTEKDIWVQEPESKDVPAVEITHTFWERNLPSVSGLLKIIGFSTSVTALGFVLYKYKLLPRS", "assay": "in vitro metabolism of psilocin by human MAO-A", "type": "in vitro ADME", "conditions": "test compound 0.2 and 2 μM; protein 0.03, 0.1, 0.3 and 1 mg/ml; incubation 0-30 min, 37° C., pH 7.4, no cofactors (FIGS. 1A & 1B)"}}, "data": [{"smiles": "CN(C)CCc1c[nH]c2cccc(O)c12", "note": "[psilocin, 4-hydroxy-N,N-dimethyltryptamine]", "values": [{"measurement": "metabolism by human MAO-B", "setting": "human MAO-B", "value": "not human MAO-B"}, {"measurement": "metabolism by human MAO-A", "setting": "human MAO-A", "value": "is metabolized by human MAO-A"}]}]}
